According to PubChem BioAssay AID1963830 (Molecular Pharmacology Branch, DTP, NCI, 2024):
pIC50: −log10 of the molar value.

Tested on: 922993-354-T-J3-PDC complex spheroid viability
Assay: Anticancer human tumor 922993-354-T-J3-PDC patient-derived endometrial carcinoma cell line growth inhibition [POLQ]
Details: for pIC50: curve of first compound; for viability, T/C: stronger effect = lower value
Method: Multicellular complex tumor spheroid response to Polymerase (POL) inhibitors (novobiocin, ART-558, RP6685) in combination with a variety of drugs and investigational agents in selected tumor cell lines
The POL inhibitors (novobiocin, ART-558, and RP6685) were evaluated both individually and in combination with standard of care and investigational anticancer small molecules within a complex spheroid model of solid tumors. . Complex spheroids include a stromal component modeled by human endothelial cells (HUVEC) and fibroblasts modeled by human mesenchymal stem cells (MSCs). The concentration ranges selected for each drug and investigational agent were based upon clinically achievable concentrations if the clinical Cmax of the agent was known.
Compounds. The drugs and investigational agents: novobiocin (NSC847541), ART-558 (NSC835418), RP-6685 (NSC848927), peposertib (NSC802822), ceralasertib (NSC780249), elimusertib (NSC800525), camonsertib (NSC841442), AZD-1390 (NSC803789), olaparib (NSC753686), talazoparib (NSC767125), rucaparib (NSC756644), sotorasib (NSC818433), MRTX-1133 (NSC836407), SN-38 (NSC673596), topotecan (NSC609699), epotoside (NSC141540), doxorubicin (NSC123127), gemcitabine (NSC613327), 5-fluorouracil (NSC19893), paclitaxel (NSC125973), vemurafenib (NSC761431), MSA-2 (NSC828583), SN-011 (NSC837082), adavosertib (NSC754352), prexasertib (NSC758257), carboplatin (NSC241240) and oxaliplatin (NSC266046), were obtained from the National Cancer Institute (NCI) Developmental Therapeutics Program Chemical Repository (21). The FDA-approved anticancer drug set is available from the Developmental Therapeutics Program at https://dtp.cancer.gov/organization/dscb/obtaining/. […] The stock solutions were prepared in dimethyl sulfoxide (DMSO, Sigma-Aldrich, St. Louis, MO, cat. D2650), except for the platinum compounds which were prepared in saline (Quality Biological, Gaithersburg, MD, cat. 114-055-101), at 800-fold the tested concentration and stored at -70 degrees C prior to their use. All drugs and investigational agents were tested over a range starting from a high concentration at or near the clinical Cmax and decreasing in half-log increments. If the clinical Cmax for an agent had not been determined, the highest concentration tested was 10 microM, except for SN-38, which was tested at a high concentration of 1 microM.
Cell Culture. All cells were maintained in an incubator at 37 degrees C and 5% CO2 with 95% humidity. The PDC lines were cultured according to standard operating procedures established by the NCI PDMR (https://pdmr.cancer.gov). Table 3 of the manuscript, lists the cell lines along with the number of the three cell types plated to form the mct-spheroids and media for tumor cell growth. After thawing, all PDC lines, except 997537-175-T-J1-PDC and 415267-285-R-J2-PDC, were cultured in Matrigel-coated flasks prepared with a working solution of 1X Ham's F-12 nutrient mix, without supplementation (Thermo Fisher Scientific, cat. 11765054), 100 U/mL penicillin-streptomycin (Thermo Fisher Scientific, cat. 15140122), and 2.5% Matrigel (Corning Inc., Corning, NY, cat. 354248) for the first three passages. The two PDC lines 997537-175-T-J1-PDC and 415267-285-R-J2-PDC were cultured on uncoated flasks. The 857933-349-R-J2-PDC line was cultured in 6C/Colon 1B media containing advanced DMEM/F-12 (Thermo Fisher Scientific, cat. 12634028), 10 mM HEPES (Thermo Fisher Scientific, cat. 15630080), 1X GlutaMAX supplement (Thermo Fisher Scientific, cat. 35050061), 0.1 mg/mL primocin (InvivoGen, San Diego, CA, cat. ant-pm-2), 10% defined fetal bovine serum, heat inactivated (HyClone Laboratories Inc., Logan, UT, cat. SH30070.03HI), 50% L-WRN conditioned media (ATCC, cat. CRL-3276), 1.25 mM N-Acetyl-L-cysteine (Sigma-Aldrich, cat. A9165), 10 mM nicotinamide (Sigma-Aldrich, cat. N0636), 1X B-27 supplement (Thermo Fisher Scientific, cat. 17504044), 1X N-2 supplement (Thermo Fisher Scientific, cat. […]

[1] = second compound 0.0316 µM, first compound 0.0316 µM
[2] = second compound 0.0316 µM, first compound 0.1 µM
[3] = second compound 0.0316 µM, first compound 0.316 µM
[4] = second compound 0.0316 µM, first compound 1 µM
[5] = second compound 0.1 µM, first compound 0.0316 µM
[6] = second compound 0.1 µM, first compound 0.1 µM
[7] = second compound 0.1 µM, first compound 0.316 µM
[8] = second compound 0.1 µM, first compound 1 µM
[9] = second compound 0.316 µM, first compound 0.0316 µM
[10] = second compound 0.316 µM, first compound 0.1 µM
[11] = second compound 0.316 µM, first compound 0.316 µM
[12] = second compound 0.316 µM, first compound 1 µM
[13] = second compound 1 µM, first compound 0.0316 µM
[14] = second compound 1 µM, first compound 0.1 µM
[15] = second compound 1 µM, first compound 0.316 µM
[16] = second compound 1 µM, first compound 1 µM
[17] = second compound 3.16 µM, first compound 0.0316 µM
[18] = second compound 3.16 µM, first compound 0.1 µM
[19] = second compound 3.16 µM, first compound 0.316 µM
[20] = second compound 3.16 µM, first compound 1 µM
[21] = second compound 10 µM, first compound 0.0316 µM
[22] = second compound 10 µM, first compound 0.1 µM
[23] = second compound 10 µM, first compound 0.316 µM
[24] = second compound 10 µM, first compound 1 µM
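Also: spheroids exposed to the agents for one week.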
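For viability, T/C in this document: 100% = DMSO vehicle control wells.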

## COc1cc2cc(C(=O)CCC(=O)O)sc2cc1OC + COC1C(OC(N)=O)C(O)C(Oc2ccc3c(O)c(NC(=O)c4ccc(O)c(CC=C(C)C)c4)c(=O)oc3c2C)OC1(C)C
Second compound 0.0316 µM
  pIC50: < 5.00
Second compound 0.1 µM
  pIC50: < 5.00
Second compound 0.316 µM
  pIC50: < 5.00
Second compound 1 µM
  pIC50: < 5.00
Second compound 3.16 µM
  pIC50: < 5.00
Second compound 10 µM
  pIC50: < 5.00
[1]
  viability, T/C: 105%
[2]
  viability, T/C: 94.7%
[3]
  viability, T/C: 108%
[4]
  viability, T/C: 106%
Second compound 0.0316 µM, first compound 3.16 µM
  viability, T/C: 103%
Second compound 0.0316 µM, first compound 10 µM
  viability, T/C: 60.1%
[5]
  viability, T/C: 103%
[6]
  viability, T/C: 110%
[7]
  viability, T/C: 104%
[8]
  viability, T/C: 105%
Second compound 0.1 µM, first compound 3.16 µM
  viability, T/C: 107%
Second compound 0.1 µM, first compound 10 µM
  viability, T/C: 73.1%
[9]
  viability, T/C: 111%
[10]
  viability, T/C: 101%
[11]
  viability, T/C: 104%
[12]
  viability, T/C: 106%
Second compound 0.316 µM, first compound 3.16 µM
  viability, T/C: 101%
Second compound 0.316 µM, first compound 10 µM
  viability, T/C: 74.2%
[13]
  viability, T/C: 104%
[14]
  viability, T/C: 92.3%
[15]
  viability, T/C: 97.2%
[16]
  viability, T/C: 102%
Second compound 1 µM, first compound 3.16 µM
  viability, T/C: 105%
Second compound 1 µM, first compound 10 µM
  viability, T/C: 65.1%
[17]
  viability, T/C: 97.4%
[18]
  viability, T/C: 87.6%
[19]
  viability, T/C: 100%
[20]
  viability, T/C: 96.1%
Second compound 3.16 µM, first compound 3.16 µM
  viability, T/C: 113%
Second compound 3.16 µM, first compound 10 µM
  viability, T/C: 61.8%
[21]
  viability, T/C: 86.3%
[22]
  viability, T/C: 75.2%
[23]
  viability, T/C: 101%
[24]
  viability, T/C: 91.4%
Second compound 10 µM, first compound 3.16 µM
  viability, T/C: 91.4%
Second compound 10 µM, first compound 10 µM
  viability, T/C: 62%

## COc1cccc(OCCCN)c1-c1cc(Nc2cnc(C#N)cn2)n[nH]1 + Cc1cccc(N(C)C(=O)C2C(O)CCN2c2nc(C)cc(C(F)(F)F)c2C#N)c1
Second compound 0.0316 µM
  pIC50: 6.22
Second compound 0.1 µM
  pIC50: 6.23
Second compound 0.316 µM
  pIC50: 6.21
Second compound 1 µM
  pIC50: 6.22
Second compound 3.16 µM
  pIC50: 6.36
Second compound 10 µM
  pIC50: 6.85
Second compound 0.0316 µM, first compound 0.00316 µM
  viability, T/C: 107%
Second compound 0.0316 µM, first compound 0.01 µM
  viability, T/C: 107%
[1]
  viability, T/C: 103%
[2]
  viability, T/C: 104%
[3]
  viability, T/C: 89%
[4]
  viability, T/C: 19.8%
Second compound 0.1 µM, first compound 0.00316 µM
  viability, T/C: 104%
Second compound 0.1 µM, first compound 0.01 µM
  viability, T/C: 104%
[5]
  viability, T/C: 103%
[6]
  viability, T/C: 97.7%
[7]
  viability, T/C: 91.3%
[8]
  viability, T/C: 14.5%
Second compound 0.316 µM, first compound 0.00316 µM
  viability, T/C: 102%
Second compound 0.316 µM, first compound 0.01 µM
  viability, T/C: 101%
[9]
  viability, T/C: 101%
[10]
  viability, T/C: 98%
[11]
  viability, T/C: 93.5%
[12]
  viability, T/C: 17.2%
Second compound 1 µM, first compound 0.00316 µM
  viability, T/C: 102%
Second compound 1 µM, first compound 0.01 µM
  viability, T/C: 98.8%
[13]
  viability, T/C: 103%
[14]
  viability, T/C: 98%
[15]
  viability, T/C: 92.4%
[16]
  viability, T/C: 16%
Second compound 3.16 µM, first compound 0.00316 µM
  viability, T/C: 103%
Second compound 3.16 µM, first compound 0.01 µM
  viability, T/C: 106%
[17]
  viability, T/C: 101%
[18]
  viability, T/C: 99.5%
[19]
  viability, T/C: 65.1%
[20]
  viability, T/C: 10.7%
Second compound 10 µM, first compound 0.00316 µM
  viability, T/C: 99.2%
Second compound 10 µM, first compound 0.01 µM
  viability, T/C: 101%
[21]
  viability, T/C: 94.3%
[22]
  viability, T/C: 65.5%
[23]
  viability, T/C: 13.2%
[24]
  viability, T/C: 9.72%
